Test results taken from patent US20230072421A1, “TARGETED RADIOPHARMACEUTICALS FOR THE DIAGNOSIS AND TREATMENT OF PROSTATE CANCER” (Bayer AS, priority 2019, published 2023).

How the values were obtained:
22Rv1 cells = assay: Cell proliferation assay (CellTiter-Glo, 5-day exposure), 22Rv1; type: cell-based; conditions: 22Rv1, 1000 cells/well, Th-227 labelled at 375 kBq/nmol, mean of 1 to 6 experiments
Method in brief: (§1)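 Cells were plated (4000/well VCaP, 1000/well for the other lines), left overnight at 37 °C with 5% CO2, then exposed for 5 days to Thorium-227-labelled PSMA ligands. Viability before and after exposure was measured by CellTiter-Glo.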

C4-2 cells = assay: Cell proliferation assay (CellTiter-Glo, 5-day exposure), C4-2; type: cell-based; conditions: C4-2, 1000 cells/well, Th-227 labelled at 375 kBq/nmol, mean of 1 to 6 experiments
Method in brief: as §1

[1] = Biodistribution study in LNCaP tumor-bearing mice (Th227 counted in organs); type: in vivo, SCID mice; conditions: 1500 kBq/kg
Procedure: (§2) SCID mice were randomly assigned to experimental groups, ten animals per group (efficacy) or n=3-5 per time point of biodistribution study. At the initiation of the study, a testosterone pellet was subcutaneously transplanted, the animals were shaved, tattooed and each cage was labeled with the cage number, study number and number of animals per cage.
(§3) LNCaP human prostate cancer cells were cultured as described according to the supplier's protocols. Cells were harvested for transplantation in a subconfluent (70%) state. Animals were injected with 5×10^6 LNCaP cells suspended in 100% Matrigel subcutaneously into the flank of the mice.
Biodistribution study: When tumors reached a predetermined size in mice of ˜50 mm^2 animals were randomized into groups (n=3 animals/time point) and the radioactive compound was once applied intravenously. The i.v. application volume was 100 μl/mice.
At the predetermined time point, n=3 animals were sacrificed, the organs removed, weight and measured in a Germanium detector to count the Th227 in the sample.

VCaP cells = assay: Cell proliferation assay (CellTiter-Glo, 5-day exposure), VCaP; type: cell-based; conditions: 4000 cells/well, Th-227 labelled at 375 kBq/nmol, mean of 1 to 6 experiments
Method in brief: as §1

[2] = tested on: LNCaP human prostate cancer cells; assay: LNCaP xenograft efficacy study (T/C tumor area); type: in vivo, SCID mice; conditions: Example IV; day 36 after start of therapy; once 1 MBq/kg
Procedure: as §2, §3
Efficacy study: When tumors reached a predetermined size in mice of 35-50 mm^2 animals were randomized into treatment and control groups (n=10 animals/group) and treatment with the defined radioactive dose was started. The i.v. application volume was 100 μl/mice.
Tumor response was assessed by determination of the tumor area (product of the longest diameter and its perpendicular) using a caliper. The animal body weight was monitored as a measure for treatment-related toxicity. Measurement of tumor area and body weight was performed two to three times weekly.
Animals were sacrificed when showing signs of toxicity (>20% body weight loss) or when tumors reached a size of approximately 200 mm^2.
Tumor growth inhibition is presented as T/C ratio (Treatment/Control) calculated with tumor areas when the vehicle control group had to be closed.

With Cc1cc(C(=O)NCCN(CCCN(CCNC(=O)c2cc(C)n(CC(=O)O)c(=O)c2[O-])CCNC(=O)c2cc(C)n(CC(=O)NCC3CCC(C(=O)NC(Cc4cnc5ccccc5c4)C(=O)NCCCCC(NC(=O)NC(CCC(=O)O)C(=O)O)C(=O)O)CC3)c(=O)c2[O-])CCNC(=O)c2cc(C)n(CC(=O)NCC3CCC(C(=O)NC(Cc4cnc5ccccc5c4)C(=O)NCCCCC(NC(=O)NC(CCC(=O)O)C(=O)O)C(=O)O)CC3)c(=O)c2[O-])c([O-])c(=O)n1CC(=O)O.[227Th+4] (stereo not drawn) [Example 22-C dimer-227Th] the “Proliferation assay on cancer cell lines by TTCs Default Pivot #3 IC50 [kBq/mL] 22Rv1 1000cells 375kBq/nmol (mean)” value (22Rv1 cells) was 0.89 kBq/mL, the “Proliferation assay on cancer cell lines by TTCs Default Pivot #3 IC50 [kBq/mL] C4-2 1000cells 375kBq/nmol (mean)” value (C4-2 cells) was 2.56 kBq/mL and the Th-227 in Blood ([1]; 0.25 h) was 3.35% ID Th-227/g organ. For the same compound, the Th-227 in Liver ([1]; 0.25 h) was 1.79% ID Th-227/g organ, the Th-227 in Spleen ([1]; 0.25 h) was 13.87% ID Th-227/g organ and the Th-227 in Tumor ([1]; 0.25 h) was 4.57% ID Th-227/g organ. It also gave a Th-227 in bone ([1]; 0.25 h) of 2.50% ID Th-227/g organ, a Th-227 in brain ([1]; 0.25 h) of 0.13% ID Th-227/g organ and a Th-227 in kidney ([1]; 0.25 h) of 61.44% ID Th-227/g organ. The “Th-227 in large intestine” value ([1]; 0.25 h) was 0.87% ID Th-227/g organ, the Th-227 in lung ([1]; 0.25 h) was 3.56% ID Th-227/g organ and the Th-227 in muscle ([1]; 0.25 h) was 1.27% ID Th-227/g organ. The Th-227 in prostate ([1]; 0.25 h) was 5.47% ID Th-227/g organ, the “Th-227 in salivary glands” value ([1]; 0.25 h) was 2.63% ID Th-227/g organ and the “Th-227 in small intestine” value ([1]; 0.25 h) was 1.64% ID Th-227/g organ. The Th-227 in Blood ([1]; 1 hr) was 0.53% ID Th-227/g organ, the Th-227 in Liver ([1]; 1 hr) was 0.41% ID Th-227/g organ and the Th-227 in Spleen ([1]; 1 hr) was 8.93% ID Th-227/g organ. It also gave a Th-227 in Tumor ([1]; 1 hr) of 4.49% ID Th-227/g organ, a Th-227 in bone ([1]; 1 hr) of 1.12% ID Th-227/g organ and a Th-227 in brain ([1]; 1 hr) of 0.01% ID Th-227/g organ. The Th-227 in kidney ([1]; 1 hr) was 96.67% ID Th-227/g organ, the “Th-227 in large intestine” value ([1]; 1 hr) was 0.23% ID Th-227/g organ and the Th-227 in lung ([1]; 1 hr) was 1.30% ID Th-227/g organ. The Th-227 in muscle ([1]; 1 hr) was 0.28% ID Th-227/g organ, the Th-227 in prostate ([1]; 1 hr) was 1.66% ID Th-227/g organ and the “Th-227 in salivary glands” value ([1]; 1 hr) was 0.69% ID Th-227/g organ. The “Th-227 in small intestine” value ([1]; 1 hr) was 0.38% ID Th-227/g organ, the Th-227 in Blood ([1]; 4 hr) was 0.10% ID Th-227/g organ and the Th-227 in Liver ([1]; 4 hr) was 0.60% ID Th-227/g organ. It also gave a Th-227 in Spleen ([1]; 4 hr) of 1.68% ID Th-227/g organ, a Th-227 in Tumor ([1]; 4 hr) of 2.18% ID Th-227/g organ and a Th-227 in bone ([1]; 4 hr) of 0.74% ID Th-227/g organ. For the same compound, the Th-227 in brain ([1]; 4 hr) was 0.00% ID Th-227/g organ, the Th-227 in kidney ([1]; 4 hr) was 45.26% ID Th-227/g organ and the “Th-227 in large intestine” value ([1]; 4 hr) was 0.29% ID Th-227/g organ. For the same compound, the Th-227 in lung ([1]; 4 hr) was 0.38% ID Th-227/g organ, the Th-227 in muscle ([1]; 4 hr) was 0.05% ID Th-227/g organ and the Th-227 in prostate ([1]; 4 hr) was 0.20% ID Th-227/g organ. For the same compound, the “Th-227 in salivary glands” value ([1]; 4 hr) was 0.36% ID Th-227/g organ, the “Th-227 in small intestine” value ([1]; 4 hr) was 0.21% ID Th-227/g organ and the Th-227 in Blood ([1]; 24 h) was 0.02% ID Th-227/g organ. The Th-227 in Liver ([1]; 24 h) was 078% ID Th-227/g organ, the Th-227 in Spleen ([1]; 24 h) was 1.96% ID Th-227/g organ and the Th-227 in Tumor ([1]; 24 h) was 2.23% ID Th-227/g organ. The Th-227 in bone ([1]; 24 h) was 0.46% ID Th-227/g organ, the Th-227 in brain ([1]; 24 h) was 0.00% ID Th-227/g organ and the Th-227 in kidney ([1]; 24 h) was 11.35% ID Th-227/g organ. For the same compound, the “Th-227 in large intestine” value ([1]; 24 h) was 0.21% ID Th-227/g organ, the Th-227 in lung ([1]; 24 h) was 0.25% ID Th-227/g organ and the Th-227 in muscle ([1]; 24 h) was 0.00% ID Th-227/g organ. For the same compound, the Th-227 in prostate ([1]; 24 h) was 0.02% ID Th-227/g organ, the “Th-227 in salivary glands” value ([1]; 24 h) was 0.18% ID Th-227/g organ and the “Th-227 in small intestine” value ([1]; 24 h) was 0.10% ID Th-227/g organ. For the same compound, the Th-227 in Blood ([1]; 96 h) was 0.00% ID Th-227/g organ, the Th-227 in Liver ([1]; 96 h) was 0.31% ID Th-227/g organ and the Th-227 in Spleen ([1]; 96 h) was 0.43% ID Th-227/g organ. The Th-227 in Tumor ([1]; 96 h) was 0.66% ID Th-227/g organ, the Th-227 in bone ([1]; 96 h) was 0.83% ID Th-227/g organ and the Th-227 in brain ([1]; 96 h) was 0.00% ID Th-227/g organ. The Th-227 in kidney ([1]; 96 h) was 2.18% ID Th-227/g organ, the “Th-227 in large intestine” value ([1]; 96 h) was 0.04% ID Th-227/g organ and the Th-227 in lung ([1]; 96 h) was 0.16% ID Th-227/g organ. The Th-227 in muscle ([1]; 96 h) was 0.00% ID Th-227/g organ, the Th-227 in prostate ([1]; 96 h) was 0.00% ID Th-227/g organ and the “Th-227 in salivary glands” value ([1]; 96 h) was 0.19% ID Th-227/g organ. For the same compound, the “Th-227 in small intestine” value ([1]; 96 h) was 0.04% ID Th-227/g organ, the “Proliferation assay on cancer cell lines by TTCs Default Pivot #3 IC50 [kBq/mL] VCap 4000cells 375kBq/nmol (mean)” value (VCaP cells) was 3.65 kBq/mL and the T/Carea [2] was 0.67.
